Where two headings read alike, the source gives them in different places.
Key:
[1] = test system: P. aeruginosa TL-2666; assay: Sensitivity test (agar dilution); format: cell-based, Pseudomonas aeruginosa; conditions: Pseudomonas aeruginosa
How it was run: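 Minimum inhibitory concentrations come from agar dilution in MHA, with single agents or combinations in twofold steps. Inocula: about 5 μl at about 10^6 CFU/ml. An FIC index of at most 1 marks a positive combination effect; above 1, negative.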

[2] = test system: Acinetobacter spp. 1198; assay: Sensitivity test (agar dilution), clinical isolate; format: cell-based, Acinetobacter calcoaceticus and Acinetobacter lwoffi
Experimental: (§1) In addition, the antibacterial activities were tested against strains which are comparatively less sensitive to β-lactam compounds, namely clinically isolated 13 strains of Acinetobacter calcoaceticus and Acinetobacter lwoffi, clinically isolated 11 strains of Serratia marcescens, clinically isolated 12 strains of Burkholderia cepacia, and clinically isolated 15 strains of Pseudomonas aeruginosa.
(§2) According to the standard method of Japan Chemotherapeutic Society (Chemotherapy, vol. […], p 76-79 (1981)) the test was carried out using the agar dilution method. After dissolving test samples in distilled water, agar medium containing the test samples was prepared in such a manner that the final concentration became twice serial dilution by pouring serially diluted combination drug solution or a single drug solution into agar medium. As agar medium was used Mueller Hinton Agar medium (MHA). Then, each strain was cultivated over night at 37° C. in an incubator and suspended in buffered saline solution with gelatin (BSG) in the concentration of about 10^6 CFU/ml. The suspension (about 5 μl) containing test strains was inoculated to the medium containing the test samples by Micro Planter.
(§3) Each drug was weighed, and dissolved in distilled water to give a test sample. When the drugs are used in combination, two kinds of solution containing each drug were mixed so as to be various ratio of concentration to give a mixed solution. When the sample is subjected to sensitivity test, this mixed solution was diluted by twice serial dilution method.
(§4) Furthermore, when the drug is solely used, each test sample was used as it is, and diluted by twice serial dilution method from the maximum concentration to the minimum concentration.

[3] = test system: Acinetobacter spp. 1338-2; assay: Sensitivity test (agar dilution), clinical isolate; format: cell-based, Acinetobacter calcoaceticus and Acinetobacter lwoffi
Experimental: as §1, §2, §3, §4

[4] = test system: Acinetobacter spp. 1398-2; assay: Sensitivity test (agar dilution), clinical isolate; format: cell-based, Acinetobacter calcoaceticus and Acinetobacter lwoffi
Experimental: as §1, §2, §3, §4

[5] = test system: Acinetobacter spp. 1399-2; assay: Sensitivity test (agar dilution), clinical isolate; format: cell-based, Acinetobacter calcoaceticus and Acinetobacter lwoffi
Experimental: as §1, §2, §3, §4

[6] = test system: Acinetobacter spp. 227-1; assay: Sensitivity test (agar dilution), clinical isolate; format: cell-based, Acinetobacter calcoaceticus and Acinetobacter lwoffi
Experimental: as §1, §2, §3, §4

[7] = test system: Acinetobacter spp. 256; assay: Sensitivity test (agar dilution), clinical isolate; format: cell-based, Acinetobacter calcoaceticus and Acinetobacter lwoffi
Experimental: as §1, §2, §3, §4

[8] = test system: Acinetobacter spp. Jan-54; assay: Sensitivity test (agar dilution), clinical isolate; format: cell-based, Acinetobacter calcoaceticus and Acinetobacter lwoffi
Experimental: as §1, §2, §3, §4

[9] = test system: Acinetobacter spp. Jan-81; assay: Sensitivity test (agar dilution), clinical isolate; format: cell-based, Acinetobacter calcoaceticus and Acinetobacter lwoffi
Experimental: as §1, §2, §3, §4

[10] = test system: Acinetobacter spp. Jan-99 (second line, r15); assay: Sensitivity test (agar dilution), clinical isolate; format: cell-based, Acinetobacter calcoaceticus and Acinetobacter lwoffi
Experimental: as §1, §2, §3, §4

[11] = test system: Acinetobacter spp. Jan-99; assay: Sensitivity test (agar dilution), clinical isolate; format: cell-based, Acinetobacter calcoaceticus and Acinetobacter lwoffi
Experimental: as §1, §2, §3, §4

[12] = TL2666, Concomitant (AZT:SM = 1:1), P. aeruginosa TL-2666, read-out: MIC concomitant
[13] = TL2666, drug alone, P. aeruginosa TL-2666, read-out: MIC alone
[14] = TL2666, Concomitant (MEPM:SM = 1:1), read-out: MIC
[15] = TL2666, Concomitant (MEPM:SM = 1:2), read-out: MIC
[16] = TL2666, Concomitant (MEPM:SM = 1:4), read-out: MIC
[17] = TL2666, Concomitant drug (MEPM:SM = 2:1), read-out: MIC
[18] = SPP.1198, Concomitant (ME:SM = 1:1), read-out: MIC
[19] = SPP.1198, Concomitant (ME:SM = 1:4), read-out: MIC
[20] = SPP.1198, Concomitant (ME:SM = 2:1), read-out: MIC
[21] = SPP.13382, Concomitant (ME:SM = 1:1), read-out: MIC
[22] = SPP.13382, Concomitant (ME:SM = 1:2), read-out: MIC
[23] = SPP.13382, Concomitant (ME:SM = 2:1), read-out: MIC
[24] = SPP.13382, alone, read-out: MIC
[25] = SPP.13982, Concomitant (ME:SM = 1:1)
[26] = SPP.13982, Concomitant (ME:SM = 1:2)
[27] = SPP.13982, Concomitant (ME:SM = 1:4)
[28] = SPP.13982, Concomitant (ME:SM = 2:1)
[29] = SPP.13992, Concomitant (ME:SM = 1:1)
[30] = SPP.13992, Concomitant (ME:SM = 1:2)
[31] = SPP.13992, Concomitant (ME:SM = 1:4)
[32] = SPP.13992, Concomitant (ME:SM = 2:1)
[33] = SPP.2271, Concomitant (ME:SM = 1:1)
[34] = SPP.2271, Concomitant (ME:SM = 1:2)
[35] = SPP.2271, Concomitant (ME:SM = 1:4)
[36] = SPP.2271, Concomitant (ME:SM = 2:1)
[37] = SPP.256, Concomitant (ME:SM = 1:1)
[38] = SPP.256, Concomitant (ME:SM = 1:2)
[39] = SPP.256, Concomitant (ME:SM = 1:4)
[40] = SPP.256, Concomitant (ME:SM = 2:1)
[41] = Concomitant (ME:SM = 1:1), read-out: MIC
[42] = Concomitant (ME:SM = 1:2), read-out: MIC
[43] = Concomitant (ME:SM = 2:1), read-out: MIC
[44] = Acinetobacter, Concomitant (ME:SM = 1:1), read-out: MIC
[45] = Acinetobacter, Concomitant (ME:SM = 2:1), read-out: MIC
[46] = Acinetobacter, alone, read-out: MIC

Measured: MIC

C[C@H]1[C@H](NC(=O)/C(=N\OC(C)(C)C(=O)O)c2csc(N)n2)C(=O)N1S(=O)(=O)O [AZT, aztreonam]
2 µg/mL: [1]; [13]
8 µg/mL: [1]; [12]

C[C@@H](O)[C@H]1C(=O)N2C(C(=O)O)=C(S[C@@H]3CN[C@H](C(=O)N(C)C)C3)[C@H](C)[C@H]12 [MEPM, meropenem]
4 µg/mL: [4]; [28] | [9]; Concomitant (ME:SM = 2:1) | [9]; alone
0.125 µg/mL: [2]; SPP.1198 | [3]; SPP.13382 | [10] | [11]; Acinetobacter | [11]; Concomitant (ME:SM = 1:2)
8 µg/mL: [9]; Concomitant (ME:SM = 1:1)
0.5 µg/mL: [2]; SPP.1198, alone, read-out: MIC | [3]; [21] | [3]; [22] | [3]; [23] | [5]; [29] | [5]; [30] | [5]; [32] | [5]; SPP.13992, alone | [6]; [33] | [6]; [34] | [6]; [36] | [7]; [37] | [7]; [38] | [7]; [40] | [8]; Concomitant (ME:SM = 1:1) | [8]; Concomitant (ME:SM = 1:2) | [8]; Concomitant (ME:SM = 2:1) | [10]; [41] | [10]; [43] | [10]; alone, read-out: MIC
1 µg/mL: [1]; [14] | [1]; [15] | [1]; [16] | [1]; [17] | [1]; TL2666, alone, read-out: MIC | [3]; [24] | [4]; [27] | [6]; SPP.2271, alone | [7]; SPP.256, alone | [8]; alone
32 µg/mL: [4]; SPP.13982, alone
0.25 µg/mL: [2]; [18] | [2]; [20] | [5]; [31] | [6]; [35] | [7]; [39] | [8]; Concomitant (ME:SM = 1:4) | [10]; [42] | [11]; [44] | [11]; [45] | [11]; [46]
2 µg/mL: [4]; [25] | [4]; [26] | [9]; Concomitant (ME:SM = 1:2) | [9]; Concomitant (ME:SM = 1:4)
0.063 µg/mL: [2]; [19]

C[C@H]1C=C(c2csc(SC3=C(C(=O)O)N4C(=O)[C@H]([C@@H](C)O)[C@H]4[C@H]3C)n2)CN1 [SM, (4R,5S,6S)-6-[(1R)-1-Hydroxyethyl]-4-methyl-3-({4-[(5S)-5-methyl-2,5-dihydro-1H-pyrrol-3-yl]-1,3-thiazol-2-yl}sulfanyl)-7-oxo-1-azabicyclo[3.2.0]hept-2-ene-2-carboxylic acid]
4 µg/mL: [1]; [16] | [4]; [26] | [4]; [27] | [9]; Concomitant (ME:SM = 1:2)
0.25 µg/mL: [2]; [18] | [2]; SPP.1198, Concomitant (ME:SM = 1:2), read-out: MIC | [2]; [19] | [3]; [23] | [5]; [32] | [6]; [36] | [7]; [40] | [8]; Concomitant (ME:SM = 2:1) | [10]; [43] | [11]; [44] | [11]; Acinetobacter, Concomitant (ME:SM = 1:2), read-out: MIC
16 µg/mL: [1]; TL2666, Concomitant (PIPC:SM = 1:1), P. aeruginosa TL-2666, read-out: MIC concomitant | [1]; TL2666, alone, read-out: MIC | [1]; [13]
1 µg/mL: [1]; TL2666, Concomitant (BIPM:SM = 1:1), P. aeruginosa TL-2666, read-out: MIC concomitant | [1]; TL2666, Concomitant (DRPM:SM = 1:1), P. aeruginosa TL-2666, read-out: MIC concomitant | [1]; TL2666, Concomitant (IPM:SM = 1:1), read-out: MIC | [1]; [14] | [3]; [22] | [5]; [30] | [5]; [31] | [6]; [34] | [6]; [35] | [7]; [38] | [7]; [39] | [7]; SPP.256, alone | [8]; Concomitant (ME:SM = 1:2) | [8]; Concomitant (ME:SM = 1:4)
0.5 µg/mL: [1]; [17] | [2]; SPP.1198, alone, read-out: MIC | [3]; [21] | [3]; SPP.13382, Concomitant (ME:SM = 1:4), read-out: MIC | [3]; [24] | [5]; [29] | [6]; [33] | [7]; [37] | [8]; Concomitant (ME:SM = 1:1) | [10]; [41] | [10]; [42] | [10]; Concomitant (ME:SM = 1:4), read-out: MIC | [11]; Acinetobacter, Concomitant (ME:SM = 1:4), read-out: MIC | [11]; [46]
32 µg/mL: [9]; alone
8 µg/mL: [1]; [12] | [1]; TL2666, Concomitant (CAZ:SM = 1:1), P. aeruginosa TL-2666, read-out: MIC concomitant | [1]; TL2666, Concomitant (PAPM:SM = 1:1), P. aeruginosa TL-2666, read-out: MIC concomitant | [4]; SPP.13982, alone | [9]; Concomitant (ME:SM = 1:1) | [9]; Concomitant (ME:SM = 1:4)
2 µg/mL: [1]; TL2666, Concomitant (CPFX:SM = 1:1), P. aeruginosa TL-2666, read-out: MIC concomitant | [1]; [15] | [4]; [25] | [4]; [28] | [5]; SPP.13992, alone | [6]; SPP.2271, alone | [8]; alone | [9]; Concomitant (ME:SM = 2:1) | [10]; alone, read-out: MIC
0.125 µg/mL: [2]; [20] | [11]; [45]

Reference: patent publication US20090018111A1, “Novel Antimicrobial Medicament” (priority 2004, published 2009)
